Results as given in patent US20250049928A1, “ANESTHETIC PRODRUGS AND DERIVATIVES THEREOF FOR PROLONGED SENSORY SELECTIVE NERVE BLOCKAGE” (The Board of Trustees of The University of Alabama, priority 2023, published 2025).
“And” between values parts separate entries of the source, which are not always exact repeats. Equal entries are not always repeated. “Also recorded” adds a separate entry of the source. Where two headings read alike, the source gives them in different places.

Assays:
[1] = molecular target: GLUT1 (Homo sapiens, UniProt P11166); conditions: cited from earlier work
GLUT1, sequence (P11166 whole entry, species assumed): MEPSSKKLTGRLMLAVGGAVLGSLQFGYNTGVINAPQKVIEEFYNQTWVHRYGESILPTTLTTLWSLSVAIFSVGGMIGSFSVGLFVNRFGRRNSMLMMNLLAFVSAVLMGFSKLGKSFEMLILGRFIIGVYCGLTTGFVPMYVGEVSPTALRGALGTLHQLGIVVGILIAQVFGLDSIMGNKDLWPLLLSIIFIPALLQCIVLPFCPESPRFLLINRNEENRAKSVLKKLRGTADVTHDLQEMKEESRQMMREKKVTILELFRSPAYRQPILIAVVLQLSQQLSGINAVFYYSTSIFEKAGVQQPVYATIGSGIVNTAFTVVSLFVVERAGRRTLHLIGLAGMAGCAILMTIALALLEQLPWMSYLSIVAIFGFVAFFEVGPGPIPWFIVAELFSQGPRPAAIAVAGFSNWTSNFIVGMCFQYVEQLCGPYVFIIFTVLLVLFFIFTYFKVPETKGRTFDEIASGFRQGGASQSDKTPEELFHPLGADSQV

[2] = system: rats; conditions: rat, in vivo
[3] = system: sciatic nerve; experiment: Rat sciatic nerve block: nociceptive axon blockade (hotplate thermal latency); type: in vivo, Sprague-Dawley rats
[4] = system: sciatic nerve; experiment: Rat sciatic nerve block: motor axon blockade (weight-bearing test); type: in vivo, Sprague-Dawley rats
[5] = Log P; conditions: octanol/water
[6] = system: rats; conditions: rat, in vivo; remark: listed apart in the source
[7] = molecular target: GLUT3 (Homo sapiens, UniProt P11169); conditions: read-out: Km for GLUT3; cited from earlier work
GLUT3, sequence (P11169 whole entry, species assumed): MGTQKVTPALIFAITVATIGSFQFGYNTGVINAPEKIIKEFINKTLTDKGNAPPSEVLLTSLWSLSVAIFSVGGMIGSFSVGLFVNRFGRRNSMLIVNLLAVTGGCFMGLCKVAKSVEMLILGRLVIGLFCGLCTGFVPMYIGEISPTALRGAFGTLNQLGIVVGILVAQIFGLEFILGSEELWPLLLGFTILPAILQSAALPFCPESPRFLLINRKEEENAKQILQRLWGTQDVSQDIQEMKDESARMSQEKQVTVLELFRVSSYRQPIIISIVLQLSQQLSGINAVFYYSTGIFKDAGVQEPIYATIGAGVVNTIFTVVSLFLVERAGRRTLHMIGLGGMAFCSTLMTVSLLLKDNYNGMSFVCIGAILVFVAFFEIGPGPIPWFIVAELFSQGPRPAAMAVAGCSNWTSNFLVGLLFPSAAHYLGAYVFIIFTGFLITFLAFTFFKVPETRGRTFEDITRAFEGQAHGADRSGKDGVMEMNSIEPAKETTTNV

[8] = system: sciatic nerve; conditions: rat, in vivo
[9] = system: sciatic nerves and surrounding tissues; conditions: rat, in vivo
[10] = system: Esterase (from porcine liver); conditions: pig
[11] = read-out: Km (transporter protein affinity for sugar molecules)

O=C1O[C@H]([C@@H](O)CO)C(=O)C1=O [DHA, dehydroascorbic acid]
Km [1, 11]: 1.1 mM

COc1cc(CNC(=O)CCCC/C=C/C(C)C)ccc1OC[C@H]1OC(O)[C@H](O)[C@@H](O)[C@H]1O (stereo partly shown) [Gal-CAP prodrug, galactose-capsaicin prodrug]
frequency of licking within 5 minutes after injection [2]: 1±1.41 times | total duration of licking behavior [2]: 4.55 ± 5.77 s

CCCCN1CCCCC1C(=O)Nc1c(C)cccc1C (stereo not shown) [bupivacaine, reference compound]
successful sensory blockade ([3]; 8.65 mM in 0.3 mL PBS): failed to achieve a successful block | mean duration of sensory block ([3]; 17.3 mM in 0.3 mL PBS): 1.75 ± 0.29 h | sensory block success ([3]; 17.3 mM in 0.3 mL PBS): 100% | duration of motor deficits / motor involvement ([4]; 17.3 mM in 0.3 mL PBS): 1.375 ± 0.48 h

COc1cc(CNC(=O)CCCC/C=C/C(C)C)ccc1O [capsaicin]
logP [5]: 3.66 | rats that developed acute respiratory distress ([6]; male, Sprague-Dawley): 75% | rats that developed contralateral nociceptive axon block ([6]; male, Sprague-Dawley): 50% | rats that experienced a seizure ([6]; male, Sprague-Dawley): 25% | rats with irreversible nociceptive axon blockade in the injected hind limb ([6]; male, Sprague-Dawley): 25% | rats exhibiting at least one systemic adverse effect [6]: all rats | successful analgesic block (thermal paw withdrawal latencies >7 seconds) ([3]; injection doses above 3.28 μmol): 100% | successful analgesic block (thermal paw withdrawal latencies >7 seconds) ([3]; injection doses above 1 mg, 0.3 mL at left sciatic nerve): 100% | duration of nociceptive axon block ([3]; injection of 6.56 μmol): 4.0 ± 2.0 h | duration of nociceptive axon blockade ([3]; single injection of 2 mg in 0.3 mL at sciatic nerve): 4 ± 2 h | duration of nociceptive axon blockade ([3]; single injection of 3 mg in 0.3 mL at sciatic nerve): 30 ± 12 h | motor deficits in the injected hind limb ([4]; 0.5-3 mg in 0.3 mL at sciatic nerve): did not produce any motor deficits | motor deficits in the injected hind limb ([4]; Example 4, doses in μmol, 0.3 mL PBS): did not produce any motor deficits

O=C[C@H](O)[C@@H](O)[C@@H](O)[C@H](O)CO [galactose]
Km [7]: 8.5 mM | Km [1, 11]: 15 mM | Km ([1]; read-out: Km for GLUT1): 17 mM

N[C@H]1C(O)O[C@H](CO)[C@@H](O)[C@@H]1O (stereo partly shown) [glucosamine]
Km [1, 11]: 2.5 mM

galactosamine-fluorescein [Gal-FL]
mean fluorescent intensity in epineurium/perineurium and inside the nerve [8]: significantly higher

galactose-capsaicin prodrug
appearance of surrounding tissues at dissection [9]: did not appear edematous or discolored | microscopic examination for myotoxicity or inflammation [9]: did not reveal significant myotoxicity or inflammation | toluidine blue stained sciatic nerve sections [9]: normal in appearance without evidence of demyelination or axonal degeneration | capsaicin-related side effects (spontaneous pain behavior, contralateral block, irreversible block, seizure, acute respiratory distress) [6]: did not cause any capsaicin-related side effects | change of nociceptive axon block duration with increasing glucose dose ([3]; rat, in vivo): decrease in nociceptive axon block duration; also recorded: significant decrease | duration of nociceptive axon blockade ([3]; rat, in vivo): 150.0 ± 76.8 h and 234 ± 36 h | successful analgesic block (thermal paw withdrawal latencies >7 seconds) ([3]; rat, in vivo): 100% | motor deficits in the injected hind limb ([4]; rat, in vivo): did not produce any motor deficits

galacturonic acid-capsaicin prodrug [GalA-CAP prodrug]
Myotoxicity Score (median; range 0-6) [9]: 0 | appearance of surrounding tissues at dissection [9]: did not appear edematous or discolored | myotoxicity score, median for all groups [9]: 0 | unmyelinated C-fibers / axon diameter by TEM [9]: not significantly increased | capsaicin-related side effects (spontaneous pain behavior, contralateral block, irreversible block, seizure, acute respiratory distress) [6]: did not cause any capsaicin-related side effects | seizures observed (systemic toxicity) [6]: 2 out of 4 | Half-lives [10]: <10 min | change of nociceptive axon block duration with increasing glucose dose ([3]; rat, in vivo): significantly reduced with increasing glucose dose | duration of nociceptive axon blockade ([3]; rat, in vivo): 150.0 ± 76.8 h and 234 ± 37 h and 150 ± 76.84 h | successful analgesic block (thermal paw withdrawal latencies >7 seconds) ([3]; rat, in vivo): 100% | time to restoration of full thermal stimulus sensitivity (return to baseline thermal latency) ([3]; rat, in vivo): 13 days | motor deficits in the injected hind limb ([4]; rat, in vivo): did not produce any motor deficits | frequency of licking within 5 minutes after injection [2]: 1±0 times | total duration of licking behavior [2]: 4.28 ± 5.81 s

glucuronic acid-linked bupivacaine [GluA-Bup]
mean duration of sensory block ([3]; rat, in vivo): 13.0 ± 2.58 h | mean duration of sensory blockade ([3]; rat, in vivo): 3.75 ± 0.50 h | sensory block success ([3]; rat, in vivo): 100% | successful sensory blockade ([3]; rat, in vivo): 100% | duration of motor deficits / motor involvement ([4]; rat, in vivo): 1.625 ± 0.25 h | motor deficits ([4]; rat, in vivo): without any motor deficits

glycine-capsaicin prodrug [Gly-CAP prodrug]
duration of nociceptive axon blockade ([3]; rat, in vivo): 17.33 ± 11.55 h | successful nociceptive axon blockade ([3]; rat, in vivo): 100%
